Measurements from patent publication US5750540A, “1,4-di-substituted piperidine derivatives” (Banyu Pharmaceutical Co., Ltd., priority 1995, dated 1998).
pKi: −log10 of the molar value.

Columns and labels:
[1] = biological target: T1, muscarinic M2 receptors (Rattus norvegicus, UniProt P10980); assay: Inhibition of binding to muscarinic M2 receptors ([3H]-N-methylscopolamine, heart membrane); settings: 0.2 nM [3H]-N-methylscopolamine
T1 construct: a membrane specimen from the heart was used as the membrane specimen; from tissue; host or cells: rat heart membranes (SD rat)
T1 sequence (P10980 1-466): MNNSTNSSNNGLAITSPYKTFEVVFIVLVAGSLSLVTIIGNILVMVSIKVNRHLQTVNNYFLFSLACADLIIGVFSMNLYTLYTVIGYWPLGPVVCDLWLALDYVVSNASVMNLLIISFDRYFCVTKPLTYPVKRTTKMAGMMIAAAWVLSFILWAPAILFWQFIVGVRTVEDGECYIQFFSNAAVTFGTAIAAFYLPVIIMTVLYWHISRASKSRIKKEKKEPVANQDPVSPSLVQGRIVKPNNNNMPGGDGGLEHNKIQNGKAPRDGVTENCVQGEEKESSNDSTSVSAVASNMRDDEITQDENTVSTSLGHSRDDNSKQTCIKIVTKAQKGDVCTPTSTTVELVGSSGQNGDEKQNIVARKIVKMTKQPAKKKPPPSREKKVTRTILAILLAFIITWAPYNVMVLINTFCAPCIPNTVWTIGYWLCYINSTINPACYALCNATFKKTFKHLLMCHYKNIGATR
Experimental: The compounds of formula [I] in accordance with the present invention have a potent and selective inhibitory effect on binding to muscarinic receptors, as well as a potent and selective antagonistic effect on muscarinic receptors both in vitro and in vivo. […] In these tests, their inhibitory and antagonistic effects were expressed in terms of the dissociation constant (Ki) of each test compound which was calculated from its concentration (IC50 ) causing a 50% inhibition of the binding of a labeled ligand to muscarinic receptors. As the labeled ligand, [^3 H]-telenzepine was used for the muscarinic M1 receptors and [^3 H]-N-methylscopolamine for the muscarinic M2 and M3 receptors.
(§1) A male SD strain rat (purchased from Nippon Charles River Co., Ltd.), weighing about 250-350 g, was sacrificed, and the cerebral cortex, heart and lacrimal glands were excised. Using a Polytron (setting 5), each organ was homogenized in 5 volumes of an ice-cold buffer solution (pH 7.4) containing 50 mM tris-HCl, 5 mM magnesium chloride, 1 mM trisodium ethylenediaminetetraacetate and 20% sucrose. The resulting homogenate was centrifuged at 3,000×g at 4° C. for 15 minutes, and the supernatant was filtered through gauze and ultracentrifuged at 100,000×g at 4° C. for 45 minutes. The resulting precipitate was suspended in an ice-cold buffer solution (pH 7.4) containing 50 mM tris-HCl and 5 mM magnesium chloride (hereinafter referred briefly to as "tris buffer") and ultracentrifuged at 100,000×g at 4° C. for 45 minutes. The resulting precipitate was suspended in tris buffer so as to give a concentration of 50 mg/ml and stored at -80° C. till use. The membrane specimens so prepared were thawed prior to use and submitted to tests for the inhibition of binding to muscarinic receptors.
3) Tests for the inhibition of binding to the muscarinic M2 receptors
(§2) The nonspecific binding of [^3 H]-N-methylscopolamine to receptors was determined by the addition of 1 mM N-methylscopolamine.

[2] = biological target: T2, intestinal M3 receptors (ileum) (Rattus norvegicus, UniProt P08483); assay: Antagonism against intestinal M3 receptors in an isolated rat ileum; settings: in vitro, agonist carbachol
T2 construct: the ileum was excised; from tissue; host or cells: isolated rat ileum
Experimental: 4) Tests for antagonism against the intestinal M3 receptors in an isolated rat ileum
A male SD strain rat (weighing 300-500 g) was killed by exsanguination, and the ileum was excised. This ileum was cut to make ileum preparations having a length of 2 cm. A preparation was suspended in a Magnus tube filled with 20 ml of Krebs-Henseleit nutrient solution (gassed with 95% O2 -5% CO2 and kept at 32° C.) under a load of 0.5 g. The tension of the preparation was recorded isotonically. After being equilibrated for an hour, the preparation was made to contract twice by treatment with 10^-4 M carbachol, and the second contraction induced by carbachol was used as the reference contraction. After the preparation was washed with fresh solution to make a return to the base line, a test compound was administered thereto (or no treatment was made). Ten minutes later, carbachol (10^-8 to 10^-3 M) was cumulatively administered from the lowermost concentration in three-fold increasing doses to obtain a dose-response curve. The dose-response curve was constructed by expressing responses as percentages based on the reference contraction of the preparation. The antagonistic potency (KB value) of the test compound was determined from the degree of shift of the dose-response curve obtained by treatment with the test compound.

[3] = biological target: T1, muscarinic M2 receptors; assay: Bradycardia in rats (acetylcholine-induced); type: in vivo; settings: iv, 5 min, i.v., 5 minutes after administration, 50% inhibition of acetylcholine-induced bradycardia, read-out: Bradycardia ID50
Experimental: 6) Tests for bradycardia in rats
Eight- to eleven-weeks-old male rats of the Sprague-Dawley strain, weighing 300-400 g, were anesthetized with urethane (750 mg/kg, i.p.) and α-chloralose (37.5 mg/kg, i.p.). A bronchus was intubated, and the right jugular vein was cannulated for drug administration. […] To evoke bradycardia, acetylcholine (50 μg/kg, i.v.) was administered to the animals. Mean values for the acetylcholine-induced decrease in heart rate as measured five minutes before (control) and five minutes after test compound administration were calculated and the results were expressed as percentages relative to the control response. The ID50 value was calculated from the dose-response curve of the test compound using probit analysis and defined as the drug dose that inhibited the acetylcholine-induced bradycardia in the control group by 50%.

[4] = biological target: T3, muscarinic M3 receptor (Rattus norvegicus, UniProt P08483); assay: Intestinal propulsion in rats (charcoal meal); type: in vivo; design: from tissue; settings: i.v., 15% inhibition of intestinal propulsion
Experimental: Tests for antagonism against muscarinic M3 receptor (in vivo)
5) Tests for intestinal propulsion in rats
Five- to seven-weeks-old male rats of the Sprague-Dawley strain were fasted overnight. A test compound was administered intravenously to the animals. Five minutes later, 1 ml per animal of a 5% charcoal suspension was administered orally. Thirty minutes after administration of the charcoal meal, the rats were sacrificed by decapitation, and the gastrointestinal tract was removed. The distance from the pylorus to the point of arrival of the charcoal meal was measured and the transportation rate was calculated. The ID15 value was calculated from the dose-response curve using probit analysis and defined as the drug dose that inhibited intestinal propulsion in the control group by 15%.

[5] = biological target: T3, muscarinic M3 receptor; assay: Inhibition of binding to muscarinic M3 receptors ([3H]-N-methylscopolamine, lacrimal gland membrane); design: a membrane specimen from the lacrimal glands was used as the membrane specimen; from tissue; host or cells: rat lacrimal gland membranes (SD rat)
Experimental: In these tests, their inhibitory and antagonistic effects were expressed in terms of the dissociation constant (Ki) of each test compound which was calculated from its concentration (IC50 ) causing a 50% inhibition of the binding of a labeled ligand to muscarinic receptors. As the labeled ligand, [^3 H]-telenzepine was used for the muscarinic M1 receptors and [^3 H]-N-methylscopolamine for the muscarinic M2 and M3 receptors.
as §1
4) Tests for the inhibition of binding to the muscarinic M2 receptors
as §2

T3 sequence (P08483 whole entry): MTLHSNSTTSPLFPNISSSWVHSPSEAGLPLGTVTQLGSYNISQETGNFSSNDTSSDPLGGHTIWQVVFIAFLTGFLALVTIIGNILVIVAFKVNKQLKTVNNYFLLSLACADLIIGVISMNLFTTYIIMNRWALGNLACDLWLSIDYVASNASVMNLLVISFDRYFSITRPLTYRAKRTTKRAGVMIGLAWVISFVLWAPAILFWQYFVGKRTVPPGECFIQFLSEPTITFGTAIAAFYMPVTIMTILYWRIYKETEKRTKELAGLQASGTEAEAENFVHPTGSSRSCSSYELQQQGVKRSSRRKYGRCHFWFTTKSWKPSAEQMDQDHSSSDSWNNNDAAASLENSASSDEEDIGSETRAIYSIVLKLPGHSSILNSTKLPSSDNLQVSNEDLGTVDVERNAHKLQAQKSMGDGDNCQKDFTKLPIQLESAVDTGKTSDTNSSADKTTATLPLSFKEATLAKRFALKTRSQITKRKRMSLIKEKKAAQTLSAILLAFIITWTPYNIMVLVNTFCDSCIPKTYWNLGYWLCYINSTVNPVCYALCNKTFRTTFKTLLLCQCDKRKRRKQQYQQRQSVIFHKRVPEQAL
T2 sequence (P08483 whole entry): as above

Work on CC(C)=CCCN1CCC(NC(=O)C(O)(c2ccccc2)C2CCC2)CC1 (stereo not shown) [Example 1, N-[1-(4-methyl-3-pentenyl)-piperidin-4-yl]-2-cyclobutyl-2-hydroxy-2-phenylacetamide] yielded a pKi [1] of 6.07, a Kb [2] of 24 nM and an ED50 [3] of over 3 mg/kg. For the same molecule, the “Enterokinesis ID15” value [4] was 0.67 mg/kg i.v, the pKi [5] was 8.05 and the M1/M3 ([5]; ratio of binding Ki, M1 over M3) was 5.0. For the same molecule, the M2/M3 ([5]; ratio of binding Ki, M2 over M3) was 96.
